# Assay results: publication PMC10402266, “Reaction hijacking inhibition of Plasmodium falciparum asparagine tRNA synthetase” (Research Square, 2023)
# Legend:
# Format in all cases: biochemical
# [1] = biological target: T1, PfAsnRS (Plasmodium falciparum cytoplasmic asparaginyl tRNA synthetase) (Plasmodium falciparum, UniProt O96198, R487S); experiment: ATP consumption assay of recombinant mutant enzyme with tRNA
# T1 construct: gene PF3D7_0211800; recombinant PfAsnRSR487S
# T1 sequence (O96198 1-610 R487S): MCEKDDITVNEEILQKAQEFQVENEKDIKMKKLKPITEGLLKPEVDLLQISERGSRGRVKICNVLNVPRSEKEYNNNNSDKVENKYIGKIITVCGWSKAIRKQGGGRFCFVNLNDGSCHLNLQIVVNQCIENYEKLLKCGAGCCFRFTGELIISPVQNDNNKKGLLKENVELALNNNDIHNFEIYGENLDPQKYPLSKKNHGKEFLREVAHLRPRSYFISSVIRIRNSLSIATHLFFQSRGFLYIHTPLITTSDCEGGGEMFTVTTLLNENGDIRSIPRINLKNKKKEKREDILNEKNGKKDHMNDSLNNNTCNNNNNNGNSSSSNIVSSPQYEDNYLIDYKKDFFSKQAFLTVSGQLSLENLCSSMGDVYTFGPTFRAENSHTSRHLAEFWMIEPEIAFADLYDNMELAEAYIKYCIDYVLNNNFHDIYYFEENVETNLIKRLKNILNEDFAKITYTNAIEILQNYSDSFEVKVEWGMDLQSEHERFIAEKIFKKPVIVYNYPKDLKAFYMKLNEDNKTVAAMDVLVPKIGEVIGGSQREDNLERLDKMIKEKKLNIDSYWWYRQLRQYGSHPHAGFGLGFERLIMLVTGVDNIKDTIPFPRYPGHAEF
# [2] = biological target: T2, PfAsnRS (Plasmodium falciparum cytoplasmic asparaginyl tRNA synthetase) (Plasmodium falciparum, UniProt O96198); experiment: ATP consumption assay of recombinant enzyme with tRNA; Asn adduct found by LC-MS
# T2 construct: gene PF3D7_0211800; recombinant wildtype PfAsnRS, His-tag removed
# [3] = biological target: T2, PfAsnRS (Plasmodium falciparum cytoplasmic asparaginyl tRNA synthetase); experiment: ATP consumption assay of recombinant enzyme without tRNA, synthetic adduct
# [4] = biological target: T2, PfAsnRS (Plasmodium falciparum cytoplasmic asparaginyl tRNA synthetase); experiment: ATP consumption assay of recombinant enzyme
smiles,measurement,setting,value
Nc1ncnc2cc(-c3cccc(S(N)(=O)=O)c3)sc12 [OSM-S-106],IC50,[1],26.3 µM
same,IC50,[2],3.6 µM
NC(=O)C[C@H](N)C(=O)NS(=O)(=O)c1cccc(-c2cc3ncnc(N)c3s2)c1 [Asn-OSM-S-106],IC50,[3],2.6 / 3.3 μM
"Nc1ncnc2c1ncn2[C@@H]1O[C@H](COS(N)(=O)=O)[C@@H](O)[C@H]1O [AMS, adenosine 5’-sulfamate]",IC50,[4],0.0037 µM
